Entries after “also recorded” stand apart in the source; their conditions may differ. Like-named read-outs stand apart in the source and are kept apart here.
Test system: 2.2-kb hGFAP promoter (GFAP-LacZ transgene) in SAM-K cells
Assay type: cell-based
Conditions: for decrease of relative β-Gal activity / decrease in β-Gal activity: vs 0.2% DMSO control; for decrease in β-Gal activity: kinase inhibitor 10 μM; for induction of GFAP-lacZ transgene expression (β-Gal activity) by exogenous cytokines: TGF-β 1 and 10 ng/ml, PDGF-BB 10 ng/ml, TNF-α 10 ng/ml, 24, 32, 48 and 60 hours after treatment
Protocol: Transfection and isolation of stable cell lines: The 2.2-kb hGFAP-LacZ (Maubach, G., et al., World J Gastroenterol, 2006, 12(5): 723-30) or the 2.2-kb hGFAP-DsRed plasmid was used to transfect PSC lines, using LIPOFECTAMINE™ 2000 (Invitrogen, CA, USA) according to the manufacturer's instructions. DsRed expression was identified under fluorescence microscope (Leica, Wetzlar, Germany). To isolate the stable clones expressing GFAPLacZ in SAM-K cell line, 24 hours after transfection, the cell culture medium was changed into medium containing Zeocin (500 μg/ml, Invitrogen, CA, USA). The single clones were isolated by dilution in the 96 well plates, the positive β-galactosidase (β-Gal) clones were identified by β-Gal staining kit from Invitrogen (CA, USA). Stable clones were maintained in culture medium containing 250 μg/ml Zeocin.
Treatment of PSCs with cell signaling inhibitors: Before treatment with different factors, SAM-K cells stably expressing the GFAP-LacZ at 70-80% confluence were starved in 0.5% FBS overnight, TGF-β (1 ng/ml, 10 ng/ml), PDBF-BB (10 ng/ml), and TNF-α (10 ng/ml) treatments were carried out at different time points, PBS buffer (0.2%) treatment served as control. Kinase inhibitors (10 μM), including LY 294002, U0126, SP600125, SB 203580, retinol and its metabolites, including retinol, 9-RA, ATRA, were applied to the cell culture medium at both 2 μM and 5 μM concentrations. Treatment in 0.2% DMSO served as control. The transgenic β-Gal activity was quantified at various times following treatment.
To obtain cryostat sections, the pancreas was removed from both GFAP-LacZ transgenic mouse and wild type mouse of the same FVB/N genetic background, and were fixed in 4% PFA fixative for 30 minutes. The fixed tissues were infiltrated overnight with 30% sucrose. Small pieces of tissue were mounted in OCT medium, and 14-μm sections were collected onto POLYSINE™ slides (Menzel GmbH & Co KG, Braunschweig, Germany). The expression of lacZ gene was detected using a staining kit from Invitrogen. The sections were stained with X-gal substrate overnight at room temperature, and subsequently counter-stained with eosin, prior to being mounted on slides with HYDROMOUNT™ (National diagnostics, Georgia, USA). To quantify the GFAP-LacZ expression, the β-Gal activity in the total cell extracts was measured with an enzymatic assay kit (Promega, WI, USA).
Statistical analysis: All quantitative results were presented as mean±SE; data were analyzed with Student t-test.

Molecule | decrease of relative β-Gal activity (2 μM, 24 hours after treatment) | decrease of relative β-Gal activity (2 μM, 48 hours after treatment) | decrease of relative β-Gal activity (5 μM, 24 hours after treatment) | decrease of relative β-Gal activity (5 μM, 48 hours after treatment) | decrease in β-Gal activity (24 hours after treatment) | decrease in β-Gal activity (48 hours after treatment) | induction of GFAP-lacZ transgene expression (β-Gal activity) by exogenous cytokines
CC1=C(/C=C/C(C)=C/C=C/C(C)=C/C(=O)O)C(C)(C)CCC1 [ATRA, all-trans retinoic acid] | ~42% | 33% | ~42% | ~31% | – | – | –
Oc1c2ccccc2c2c3c(cccc13)N=N2 [SP 600125] | – | – | – | – | about 25% | about 10% | –
CC1=C(/C=C/C(C)=C\C=C\C(C)=C\C(=O)O)C(C)(C)CCC1 [9-RA, 9-cis retinoic acid] | about 44% | 37% | about 48% | about 46% | – | – | –
N#CC(=C(/N)Sc1ccccc1N)/C(C#N)=C(\N)Sc1ccccc1N [U0126] | – | – | – | – | approximately 40% | about 15% | –
O=c1cc(N2CCOCC2)oc2c(-c3ccccc3)cccc12 [LY 294002] | – | – | – | – | ~19% | about 15% | –
C[S+]([O-])c1ccc(-c2nc(-c3ccncc3)c(-c3ccc(F)cc3)[nH]2)cc1 (centres unmarked) [SB 203580] | – | – | – | – | not as significant | no significant effects | –
TNF-α | – | – | – | – | – | – | None of the treatments specifically induced transgene expression; also recorded: No significant change in enzymatic activity
CC1=C(/C=C/C(C)=C/C=C/C(C)=C/CO)C(C)(C)CCC1 [retinol] | ~33% | 49% | ~38% | about 48% | – | – | –
TGF-β: recombinant TGF-β1 from R&D, pro-fibrogenic cytokine | – | – | – | – | – | – | None of the treatments specifically induced transgene expression; also recorded: No significant change in enzymatic activity
PDGF-BB: recombinant platelet derived growth factor-BB from R&D (protein, UniProt P01127 82-190, looked up) Platelet-derived growth …: SLGSLTIAEPAMIAECKTRTEVFEISRRLIDRTNANFLVWPPCVEVQRCSGCCNNRNVQCRPTQVQLRPVQVRKIEIVRKKPIFKKATVTLEDHLACKCETVAAARPVT | – | – | – | – | – | – | None of the treatments specifically induced transgene expression; also recorded: No significant change in enzymatic activity
